14 compounds from patent US8524716B2, “Macrocyclic indoles as hepatitis C virus inhibitors” (priority 2007, dated 2013) can be followed below.

Read-outs that look alike come from different tables or passages of the source.

Assay [1] deals with HCV NS5B (Hepatitis C virus genotype 1b (strain HC-J4), UniProt O92972). In words: biochemical. The assay is classed as biochemical. On the procedure: The cDNA encoding NS5B amino acid 1-570 (HC-J4, genotype 1b, pCV-J4L6S, genebank accession number AF054247) was subcloned into the Nhe I and Xho I restriction sites of pET-21b. Expression of the subsequent His-tagged C-terminal 21 amino acid deleted NS5B was performed as follows:
The NS5B expression construct was transformed into E. coli BL21(DE3) (Novagen, Madison, Wis.). Five milliliters of LB-medium supplemented with ampicillin (50 μg/mL) was inoculated with one colony. When the pre-culture reached an optical density of 0.6 measured at 600 nm, it was transferred to fresh LB-medium supplemented with ampicillin, at a ratio of 1:200. Cells were grown to an optical density at 600 nm of 0.6, after which the expression cultures were shifted to a growth temperature of 20° C. following induction with isopropyl-1-thio-β-D-galactopyranoside and MgCl2 at a final concentration of 0.4 mM and 10 μM, respectively. After ten hours of induction, cells were harvested by centrifugation and resuspended in 20 mM Tris-HCl, pH 7.5, 300 mM NaCl, 10% glycerol, 0.1% NP40, 4 mM MgCl2, 5 mM DTT supplemented with EDTA-free Complete Protease Inhibitor (Roche, Basel, Switzerland). Cell suspensions were disrupted by sonication and incubated with 10-15 mg/L of DNase I (Roche, Basel, Switzerland) for 30 minutes. Cell debris was removed through ultracentrifugation at 30,000×g for 1 hour and clarified cell lysate was flash frozen and stored at −80° C. prior to purification.
Clarified cell lysate was thawed and subsequently loaded onto a 5 mL pre-packed HisTrap FF column equilibrated with 25 mM HEPES, pH 7.5, 500 mM NaCl, 10% glycerol and 5 mM DTT. Proteins were eluted with 500 mM imidazole at a flow rate of 1 mL/min. Fractions containing the protein of interest were applied onto a pre-packed 26/10 HiPrep Desalting Column equilibrated with 25 mM HEPES, pH 7.5, 150 mM NaCl, 10% glycerol and 5 mM DTT. The buffer-exchanged NS5B peak was then applied onto a 20 mL Poly-U Sepharose column. Protein was eluted with an increasing salt gradient and fractions collected. Protein purity was assessed on Nu-PAGE pre-cast gels (Invitrogen, Carlsbad, Calif.). Purified NS5B samples were concentrated using Centri-Prep concentrators (Millipore, Billerica, Mass., USA) and protein concentrations were determined by Bradford assay (Pierce, Rockford, Ill., USA).
Measurement of HCV NS5B polymerization activity was performed by evaluating the amount of radio labeled GTP incorporated by the enzyme in a newly synthesized RNA using heteropolymeric RNA template/primer. The high-throughput RNA dependent RNA polymerase (RdRp) assay was carried out in 384-well plates using 100 nM enzyme, 300 nM 5′-biotinylated oligo(rG13)/poly(rC) primer-template, 600 nM of GTP, and 0.1 μCi of [^3H]GTP in 25 mM Tris-HCl, pH 7.5, 5 mM MgCl2, 25 mM KCl, 17 mM NaCl and 3 mM of dithiothreitol (DTT). Test compounds were dissolved in DMSO. The test compounds were added to the preformed polymerase-template complex, and incubated at room temperature for 15 min before the addition of nucleoside triphosphates (NTP). The 30 μl reaction was terminated after 2 h at 25° C. upon addition of 30 μl A PVT-SPA beads (Amersham Biosciences RPNQ0009, 5 mg/ml in 0.5 M EDTA).

Assay [2] has as its system HCV replicons (NS3-NS5B regions of HCV type 1b) in Huh-Luc cells. Put plainly: HCV replicon assay in Huh-7 luc/neo (Huh-Luc) cells, luciferase readout. The conditions noted are these: three days incubation, luciferase activity. The class given is cell-based. From the text:
The compounds of formula (I) were examined for activity in the inhibition of HCV RNA replication in a cellular assay. […] The cellular assay was based on a bicistronic expression construct, as described by Lohmann et al. (1999) Science vol. 285 pp. 110-113 with modifications described by Krieger et al. (2001) Journal of Virology 75: 4614-4624, in a multi-target screening strategy. In essence, the method was as follows.
The assay utilized the stably transfected cell line Huh-7 luc/neo (hereafter referred to as Huh-Luc). This cell line harbors an RNA encoding a bicistronic expression construct comprising the wild type NS3-NS5B regions of HCV type 1b translated from an Internal Ribosome Entry Site (IRES) from encephalomyocarditis virus (EMCV), preceded by a reporter portion (firefly luciferase), and a selectable marker portion (neo^R, neomycine phosphotransferase). The construct is bordered by 5′ and 3′ NTRs (non-translated regions) from HCV type 1b. Continued culture of the replicon cells in the presence of G418 (neo^R) is dependent on the replication of the HCV RNA. The stably transfected replicon cells that express HCV RNA, which replicates autonomously and to high levels, encoding inter alia luciferase, were used for screening the antiviral compounds.
The replicon cells were plated in 384 well plates in the presence of the test and control compounds which were added in various concentrations. Following an incubation of three days, HCV replication was measured by assaying luciferase activity (using standard luciferase assay substrates and reagents and a Perkin Elmer ViewLux™ ultraHTS microplate imager). […] The inhibitory activity of the compound on luciferase activity was monitored on the Huh-Luc cells, enabling a dose-response curve for each test compound. EC50 values were then calculated, which value represents the amount of the compound required to decrease the level of detected luciferase activity by 50%, or more specifically, the ability of the genetically linked HCV replicon RNA to replicate.
In general terms: A replicon is a self-replicating genome or part of one, used to study replication in cells.

Where [3] appears, read: 100 nM enzyme, [3H]GTP incorporation, 2 h at 25° C., read-out: IC50 (μM) Enzymatic assay.

Chain of HCV NS5B (O92972 2420-3010 limits assumed): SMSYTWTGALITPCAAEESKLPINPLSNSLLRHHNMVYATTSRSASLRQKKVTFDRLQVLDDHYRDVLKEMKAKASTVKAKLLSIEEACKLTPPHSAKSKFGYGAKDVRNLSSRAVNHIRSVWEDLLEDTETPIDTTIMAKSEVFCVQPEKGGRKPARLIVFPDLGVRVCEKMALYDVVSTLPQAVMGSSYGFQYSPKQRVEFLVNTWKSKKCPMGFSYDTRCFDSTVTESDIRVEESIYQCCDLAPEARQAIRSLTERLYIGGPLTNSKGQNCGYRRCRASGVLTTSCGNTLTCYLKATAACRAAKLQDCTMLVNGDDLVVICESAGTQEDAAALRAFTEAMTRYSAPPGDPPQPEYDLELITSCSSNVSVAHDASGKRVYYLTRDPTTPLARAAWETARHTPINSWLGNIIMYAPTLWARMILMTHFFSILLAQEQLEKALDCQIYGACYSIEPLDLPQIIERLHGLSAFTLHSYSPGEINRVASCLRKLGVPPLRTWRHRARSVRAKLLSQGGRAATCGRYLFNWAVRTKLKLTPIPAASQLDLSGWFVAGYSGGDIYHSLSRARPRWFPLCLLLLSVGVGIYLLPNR

A word on the IC50: it is the concentration that inhibits the measured activity by half. A word on the EC50: it is the midpoint of the concentration-response curve. Regarding `CN1C/C=C\CNC(=O)Cn2c(-c3ccc(OCc4cc(N5CCCC5=O)ccc4N4CCN(S(C)(=O)=O)CC4)cc3F)c(C3CCCCC3)c3ccc(cc32)C(=O)NS1(=O)=O` [Cpd 19, 17-cyclohexyl-18-(2-fluoro-4-(2-(4-methanesulfonyl-piperazin-1-yl)-5-(2-oxo-pyrrolidin-1-yl)-benzyloxy)-phenyl)-9-methyl-10,10-dioxo-10λ^6-thia-1,4,9,11-tetraaza-tricyclo[11.5.2.0^16,19]icosa-6,13(20),14,16(19),17-pentaene-3,12-dione], in assay [1] (setting [3]), the IC50 was 0.042 µM. The midpoint of the response in assay [2] (Hepatitis C virus, Huh-7, 72 h), the EC50, lay at 2.36 µM.
`O=C1Cn2c(-c3ccc(OCc4cc(N5CCCC5=O)ccc4N4CCOCC4)cc3)c(C3CCCCC3)c3ccc(cc32)C(=O)NCC/C=C\CCN1` [Cpd 11, 17-Cyclohexyl-18-[4-[2-morpholin-4-yl-5-(2-oxo-pyrrolidin-1-yl)-benzyloxy]-phenyl]-1,4,11-triaza-tricyclo[11.5.2.0^16,19]icosa-7,13(20),14,16(19),17-pentaene-3,12-dione]: the concentration for half-maximal inhibition (IC50) in assay [1] (setting [3]) stood at 0.45 µM. In assay [2] (Hepatitis C virus, Huh-7, 72 h), this compound yielded an EC50 of 0.69 µM.
`CN1CCCCCNC(=O)Cn2c(-c3ccoc3)c(C3CCCCC3)c3ccc(cc32)C(=O)NS1(=O)=O` [Cpd 30, 18-Cyclohexyl-19-furan-3-yl-10-methyl-11,11-dioxo-11λ^6-thia-1,4,10,12-tetraaza-tricyclo[12.5.2.017,20]henicosa-14(21),15,17(20),18-tetraene-3,13-dione] came in with an EC50 in assay [2] (Hepatitis C virus, Huh-7, 72 h) of 0.79 µM.
In the case of `CN1C/C=C\CN(C)S(=O)(=O)NC(=O)c2ccc3c(C4CCCCC4)c(-c4ccc(Cl)cc4)n(c3c2)CC1=O` [Cpd 23, 18-(4-Chloro-phenyl)-17-cyclohexyl-4,9-dimethyl-10,10-dioxo-10λ^6-thia-1,4,9,11-tetraaza-tricyclo[11.5.2.016,19]icosa-6,13(20),14,16(19),17-pentaene-3,12-dione], the IC50 in assay [1] (setting [3]) was determined as 0.45 µM. Besides, in assay [2] (Hepatitis C virus, Huh-7, 72 h), the EC50 amounted to 1.08 µM.
For `COc1ccc(-c2c(C3CCCCC3)c3ccc4cc3n2CC(=O)NCCCCN(C)S(=O)(=O)NC4=O)cc1` [Cpd 25, 17-Cyclohexyl-18-(4-methoxy-phenyl)-9-methyl-10,10-dioxo-10λ^6-thia-1,4,9,11-tetraaza-tricyclo[11.5.2.016,19]icosa-13(20),14,16(19),17-tetraene-3,12-dione] the same measures were 0.18 µM and 1.76 µM.
For `CN1CC=CCCNC(=O)Cn2c(-c3ccoc3)c(C3CCCCC3)c3ccc(cc32)C(=O)NS1(=O)=O` [Cpd 29, 18-Cyclohexyl-19-furan-3-yl-10-methyl-11,11-dioxo-11λ^6-thia-1,4,10,12-tetraaza-tricyclo[12.5.2.017,20]henicosa-7,14(21),15,17(20),18-pentaene-3,13-dione] the same measures were 0.051 µM and 0.65 µM.
The matching figures for `CS(=O)(=O)N1CCN(c2ccc(N)cc2COc2ccc(-c3c(C4CCCCC4)c4ccc5cc4n3CC(=O)NCC/C=C\CCNC5=O)cc2)CC1` [Cpd 4, 17-cyclohexyl-18-[4-[2-(4-methanesulfonylpiperazin-1-yl)-5-amino-benzyloxy]phenyl]-1,4,11-triazatricyclo[11.5.2.0^16,19]icosa-7,13(20),14,16(19),17-pentaene-3,12-dione]: 0.27 µM and 0.24 µM.
As for `Cc1nc(C)c(-c2ccc3cc(-c4c(C5CCCCC5)c5ccc6cc5n4CC(=O)NCC/C=C\CS(=O)(=O)NC6=O)ccc3n2)s1` [Cpd 18, 17-cyclohexyl-18-[2-(2,4-dimethyl-thiazol-5-yl)-quinolin-6-yl]-10,10-dioxo-10λ^6-thia-1,4,11-triaza-tricyclo[11.5.2.0^16,19]icosa-7,13(20),14,16(19),17-pentaene-3,12-dione], the IC50 in assay [1] (setting [3]) was found to be 0.04 µM. In assay [2] (Hepatitis C virus, Huh-7, 72 h), this compound registered an EC50 of 12.8 µM.
Regarding `COc1ccc(-c2c(C3CCCCC3)c3ccc4cc3n2CC(=O)NCCN(C)CCNS(=O)(=O)NC4=O)cc1` [Cpd 27, 18-Cyclohexyl-19-(4-methoxy-phenyl)-7-methyl-11,11-dioxo-11λ^6-thia-1,4,7,10,12-pentaaza-tricyclo[12.5.2.017,20]henicosa-14(21),15,17(20),18-tetraene-3,13-dione], in assay [1] (setting [3]), the half-inhibitory concentration (IC50) came to 0.44 µM. Moreover, the midpoint of the response in assay [2] (Hepatitis C virus, Huh-7, 72 h), the EC50, lay at 3.47 µM.
For `CS(=O)(=O)N1CCN(c2ccc(N3CCCC3=O)cc2COc2ccc(-c3c(C4CCCCC4)c4ccc5cc4n3CC(=O)NCC/C=C\CCNC5=O)c(F)c2)CC1` [Cpd 15, 17-Cyclohexyl-18-[2-fluoro-4-[2-(4-methanesulfonyl-piperazin-1-yl)-5-(2-oxo-pyrrolidin-1-yl)-benzyloxy]-phenyl]-1,4,11-triaza-tricyclo[11.5.2.0^16,19]icosa-7,13(20),14,16(19),17-pentaene-3,12-dione] the same measures were 1.58 µM and 0.27 µM.
In assay [1], `O=C1Cn2c(-c3ccc(OCc4cc(N5CCCC5=O)ccc4N4CCOCC4)cc3)c(C3CCCCC3)c3ccc(cc32)C(=O)NS(=O)(=O)CC=CCCN1` [Cpd 13, 17-Cyclohexyl-18-[4-[2-morpholin-4-yl-5-(2-oxo-pyrrolidin-1-yl)-benzyloxy]-phenyl]-10,10-dioxo-10λ^6-thia-1,4,11-triaza-tricyclo[11.5.2.0^16,19]icosa-7,13(20),14,16(19),17-pentaene-3,12-dione] registered an IC50 of 0.04 µM. Also, a half-maximal response in assay [2] (Hepatitis C virus, Huh-7, 72 h) (EC50) required 2.36 µM.
As to `CN1C/C=C\CCNC(=O)Cn2c(-c3ccc(Cl)cc3)c(C3CCCCC3)c3ccc(cc32)C(=O)NS1(=O)=O` [Cpd 20, 19-(4-Chloro-phenyl)-18-cyclohexyl-10-methyl-11,11-dioxo-11λ^6-thia-1,4,10,12-tetraaza-tricyclo[12.5.2.017,20]henicosa-7,14(21),15,17(20),18-pentaene-3,13-dione], the EC50 in assay [2] (Hepatitis C virus, Huh-7, 72 h) came out at 0.61 µM.
“17-Cyclohexyl-18-furan-3-yl-9-methyl-10,10-dioxo-10λ^6-thia-1,4,9,11-tetraaza-tricyclo[11.5.2.016,19]icosa-13(20),14,16(19),17-tetraene-3,12-dione [Cpd 28]” registered an EC50 in assay [2] of 1.58 µM.
For the compound `CN1CCCCCNC(=O)Cn2c(-c3ccccc3)c(C3CCCCC3)c3ccc(cc32)C(=O)NS1(=O)=O` [Cpd 22, 18-Cyclohexyl-10-methyl-11,11-dioxo-19-phenyl-11λ^6-thia-1,4,10,12-tetraaza-tricyclo[12.5.2.017,20]henicosa-14(21),15,17(20),18-tetraene-3,13-dione], a half-maximal effect in assay [2] (Hepatitis C virus, Huh-7, 72 h) (EC50) was put at 0.43 µM.
